Patent US20210188856A1, “CRYSTAL FORM OF HYDROCHLORIDE OF PYRAZOLOHETEROARYL DERIVATIVE AND PREPARATION METHOD” (JIANGSU HENGRUI MEDICINE CO., LTD., priority 2018, published 2021)

Test: Influencing factors stability (heating, light illumination, high humidity; spread and uncovered, 20 days)
Format: physicochemical
Conditions: for Maximum single impurity / Purity / Total impurities: monohydrochloride; for stability under the influencing factor conditions (in words): light illumination
Procedure: Example 6: the crystal form I of the dihydrochloride salt of the compound represented by formula (I) (example 1) was spread and uncovered, and the steadily of the sample was evaluated under heating (40° C., 60° C.), light illumination (4500 Lux), and high humidity (RH 75%, RH 90%) with a period of 20 days.
(§1) Example 10: the crystal form A (example 7) of the monohydrochloride salt of the compound of formula (I) was spread and uncovered, and the stability of the sample was evaluated under heating (40° C., 60° C.), light illumination (4500 Lux), high humidity (RH 75%, RH 90%) conditions with a period of 20 days.
as §1, with “Example 11:” for “Example 10:”, “form B” for “form A (example 7)”, “compound represented by” for “compound of”, “(I) (example 8)” for “(I)”
as §1, with “Example 12:” for “Example 10:”, “form C” for “form A (example 7)”, “compound represented by” for “compound of”, “(I) (example 9)” for “(I)”

[1] = light illumination (4500 Lux), 4 days
[2] = light illumination (4500 Lux), 10 days
[3] = light illumination (4500 Lux), 20 days
[4] = 40° C., 60° C., 75% RH, 90% RH, 20 days

CCCCOc1nc(N)c2cnn(Cc3ccc(CN4CCCC4)cc3)c2n1.Cl [crystal form A, 6-butoxy-1-(4-(pyrrolidin-1-ylmethyl)benzyl)-1H-pyrazolo[3,4-d]pyrimidin-4-amine monohydrochloride]
Maximum single impurity (0 day): 0.09%
Purity (0 day): 99.74%
Total impurities (0 day): 0.26%
Maximum single impurity (40° C., 4 days): 0.09%
Purity (40° C., 4 days): 99.72%
Total impurities (40° C., 4 days): 0.28%
Maximum single impurity (40° C., 10 days): 0.06%
Purity (40° C., 10 days): 99.72%
Total impurities (40° C., 10 days): 0.28%
Maximum single impurity (40° C., 20 days): 0.06%
Purity (40° C., 20 days): 99.70%
Total impurities (40° C., 20 days): 0.30%
Maximum single impurity (60° C., 4 days): 0.08%
Purity (60° C., 4 days): 99.72%
Total impurities (60° C., 4 days): 0.28%
Maximum single impurity (60° C., 10 days): 0.06%
Purity (60° C., 10 days): 99.75%
Total impurities (60° C., 10 days): 0.25%
Maximum single impurity (60° C., 20 days): 0.06%
Purity (60° C., 20 days): 99.70%
Total impurities (60° C., 20 days): 0.30%
Maximum single impurity (75% RH, 4 days): 0.09%
Purity (75% RH, 4 days): 99.72%
Total impurities (75% RH, 4 days): 0.28%
Maximum single impurity (75% RH, 10 days): 0.06%
Purity (75% RH, 10 days): 99.74%
Total impurities (75% RH, 10 days): 0.26%
Maximum single impurity (75% RH, 20 days): 0.08%
Purity (75% RH, 20 days): 99.68%
Total impurities (75% RH, 20 days): 0.32%
Maximum single impurity (90% RH, 4 days): 0.08%
Purity (90% RH, 4 days): 99.72%
Total impurities (90% RH, 4 days): 0.28%
Maximum single impurity (90% RH, 10 days): 0.06%
Purity (90% RH, 10 days): 99.76%
Total impurities (90% RH, 10 days): 0.24%
Maximum single impurity (90% RH, 20 days): 0.08%
Purity (90% RH, 20 days): 99.72%
Total impurities (90% RH, 20 days): 0.28%
Maximum single impurity [1]: 0.09%
Purity [1]: 99.70%
Total impurities [1]: 0.30%
Maximum single impurity [2]: 0.06%
Purity [2]: 99.75%
Total impurities [2]: 0.25%
Maximum single impurity [3]: 0.08%
Purity [3]: 99.63%
Total impurities [3]: 0.37%
stability under the influencing factor conditions (in words) [4]: good

CCCCOc1nc(N)c2cnn(Cc3ccc(CN4CCCC4)cc3)c2n1.Cl [crystal form B, 6-butoxy-1-(4-(pyrrolidin-1-ylmethyl)benzyl)-1H-pyrazolo[3,4-d]pyrimidin-4-amine monohydrochloride]
Maximum single impurity (0 day): 0.10%
Purity (0 day): 99.54%
Total impurities (0 day): 0.46%
Maximum single impurity (40° C., 4 days): 0.19%
Purity (40° C., 4 days): 99.31%
Total impurities (40° C., 4 days): 0.69%
Maximum single impurity (40° C., 10 days): 0.10%
Purity (40° C., 10 days): 99.53%
Total impurities (40° C., 10 days): 0.47%
Maximum single impurity (40° C., 20 days): 0.14%
Purity (40° C., 20 days): 99.39%
Total impurities (40° C., 20 days): 0.61%
Maximum single impurity (60° C., 4 days): 0.14%
Purity (60° C., 4 days): 99.34%
Total impurities (60° C., 4 days): 0.66%
Maximum single impurity (60° C., 10 days): 0.10%
Purity (60° C., 10 days): 99.42%
Total impurities (60° C., 10 days): 0.58%
Maximum single impurity (60° C., 20 days): 0.10%
Purity (60° C., 20 days): 99.21%
Total impurities (60° C., 20 days): 0.79%
Maximum single impurity (75% RH, 4 days): 0.11%
Purity (75% RH, 4 days): 99.54%
Total impurities (75% RH, 4 days): 0.46%
Maximum single impurity (75% RH, 10 days): 0.10%
Purity (75% RH, 10 days): 99.61%
Total impurities (75% RH, 10 days): 0.39%
Maximum single impurity (75% RH, 20 days): 0.10%
Purity (75% RH, 20 days): 99.57%
Total impurities (75% RH, 20 days): 0.43%
Maximum single impurity (90% RH, 4 days): 0.10%
Purity (90% RH, 4 days): 99.54%
Total impurities (90% RH, 4 days): 0.46%
Maximum single impurity (90% RH, 10 days): 0.10%
Purity (90% RH, 10 days): 99.61%
Total impurities (90% RH, 10 days): 0.39%
Maximum single impurity (90% RH, 20 days): 0.10%
Purity (90% RH, 20 days): 99.59%
Total impurities (90% RH, 20 days): 0.41%
Maximum single impurity [1]: 0.10%
Purity [1]: 99.51%
Total impurities [1]: 0.49%
Maximum single impurity [2]: 0.10%
Purity [2]: 99.56%
Total impurities [2]: 0.44%
Maximum single impurity [3]: 0.11%
Purity [3]: 99.45%
Total impurities [3]: 0.55%
stability under the influencing factor conditions (in words) [4]: good

CCCCOc1nc(N)c2cnn(Cc3ccc(CN4CCCC4)cc3)c2n1.Cl [crystal form C, 6-butoxy-1-(4-(pyrrolidin-1-ylmethyl)benzyl)-1H-pyrazolo[3,4-d]pyrimidin-4-amine monohydrochloride]
Maximum single impurity (0 day): 0.10%
Purity (0 day): 99.55%
Total impurities (0 day): 0.45%
Maximum single impurity (40° C., 4 days): 0.10%
Purity (40° C., 4 days): 99.55%
Total impurities (40° C., 4 days): 0.45%
Maximum single impurity (40° C., 10 days): 0.10%
Purity (40° C., 10 days): 99.60%
Total impurities (40° C., 10 days): 0.40%
Maximum single impurity (40° C., 20 days): 0.10%
Purity (40° C., 20 days): 99.53%
Total impurities (40° C., 20 days): 0.47%
Maximum single impurity (60° C., 4 days): 0.10%
Purity (60° C., 4 days): 99.50%
Total impurities (60° C., 4 days): 0.50%
Maximum single impurity (60° C., 10 days): 0.10%
Purity (60° C., 10 days): 99.58%
Total impurities (60° C., 10 days): 0.42%
Maximum single impurity (60° C., 20 days): 0.13%
Purity (60° C., 20 days): 99.42%
Total impurities (60° C., 20 days): 0.58%
Maximum single impurity (75% RH, 4 days): 0.11%
Purity (75% RH, 4 days): 99.55%
Total impurities (75% RH, 4 days): 0.45%
Maximum single impurity (75% RH, 10 days): 0.09%
Purity (75% RH, 10 days): 99.61%
Total impurities (75% RH, 10 days): 0.39%
Maximum single impurity (75% RH, 20 days): 0.10%
Purity (75% RH, 20 days): 99.57%
Total impurities (75% RH, 20 days): 0.43%
Maximum single impurity (90% RH, 4 days): 0.11%
Purity (90% RH, 4 days): 99.51%
Total impurities (90% RH, 4 days): 0.49%
Maximum single impurity (90% RH, 10 days): 0.10%
Purity (90% RH, 10 days): 99.61%
Total impurities (90% RH, 10 days): 0.39%
Maximum single impurity (90% RH, 20 days): 0.10%
Purity (90% RH, 20 days): 99.58%
Total impurities (90% RH, 20 days): 0.42%
Maximum single impurity [1]: 0.11%
Purity [1]: 99.57%
Total impurities [1]: 0.43%
Maximum single impurity [2]: 0.09%
Purity [2]: 99.64%
Total impurities [2]: 0.36%
Maximum single impurity [3]: 0.10%
Purity [3]: 99.54%
Total impurities [3]: 0.46%
stability under the influencing factor conditions (in words) [4]: good
